From ChEMBL document CHEMBL3217647, “Prospective use of molecular field points in ligand-based virtual screening: efficient identification of new reversible Cdc25 inhibitors” (Medchemcomm, 2013)

Molecular target: T1, Dual specificity protein phosphatase 3 (Homo sapiens, UniProt P51452)
Assay: Inhibition of human His-tagged VHR phosphatase activity assessed as fluorescence by BMG plate reader in the absence of detergent

T1 sequence (P51452 whole entry): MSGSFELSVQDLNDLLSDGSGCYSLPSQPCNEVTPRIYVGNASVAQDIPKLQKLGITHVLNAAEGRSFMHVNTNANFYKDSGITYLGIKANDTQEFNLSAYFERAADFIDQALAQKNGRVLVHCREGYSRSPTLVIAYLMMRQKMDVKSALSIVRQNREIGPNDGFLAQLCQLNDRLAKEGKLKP

Compound	IC50 [µM]
Cc1cccc(-c2nc(-c3ccc4c(c3)CCN4S(C)(=O)=O)cs2)c1	8
COc1ccc(-c2nc(-c3ccc4c(c3)CCN4S(C)(=O)=O)cs2)cc1	8.1
CCOc1ccc(-c2nc(-c3ccc4[nH]c(=O)[nH]c4c3)cs2)cc1	1.9
CCOc1ccc(-c2nc(-c3ccc4c(c3)CC(=O)N4C)cs2)cc1	10.6

Molecular target: T2, M-phase inducer phosphatase 2 (Homo sapiens, UniProt P30305)
T2 sequence (P30305 whole entry): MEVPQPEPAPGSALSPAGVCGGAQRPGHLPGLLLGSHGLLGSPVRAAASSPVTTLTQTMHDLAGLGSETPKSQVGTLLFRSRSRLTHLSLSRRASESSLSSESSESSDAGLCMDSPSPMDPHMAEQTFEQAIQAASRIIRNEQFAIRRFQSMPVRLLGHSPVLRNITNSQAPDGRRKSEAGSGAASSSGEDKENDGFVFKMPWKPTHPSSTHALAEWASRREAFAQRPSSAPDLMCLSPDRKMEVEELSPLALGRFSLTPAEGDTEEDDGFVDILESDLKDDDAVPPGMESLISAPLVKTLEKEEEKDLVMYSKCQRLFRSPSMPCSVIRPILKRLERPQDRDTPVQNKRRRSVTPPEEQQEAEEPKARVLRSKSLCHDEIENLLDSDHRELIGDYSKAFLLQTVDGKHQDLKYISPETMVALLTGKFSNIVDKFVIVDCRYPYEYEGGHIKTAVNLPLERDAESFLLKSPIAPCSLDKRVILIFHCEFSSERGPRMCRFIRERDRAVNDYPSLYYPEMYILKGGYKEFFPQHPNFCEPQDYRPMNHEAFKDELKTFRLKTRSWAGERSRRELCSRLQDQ
Assay: Inhibition of Cdc25B (unknown origin) phosphatase activity assessed as fluorescence by BMG plate reader in the absence of detergent

Compound	IC50 [µM]
Cc1cccc(-c2nc(-c3ccc4c(c3)CCN4S(C)(=O)=O)cs2)c1	19
COc1ccc(-c2nc(-c3ccc4c(c3)CCN4S(C)(=O)=O)cs2)cc1	17.5
CCOc1ccc(-c2nc(-c3ccc4[nH]c(=O)[nH]c4c3)cs2)cc1	8.9
CCOc1ccc(-c2nc(-c3ccc4c(c3)CC(=O)N4C)cs2)cc1	22.7

Molecular target: T3, Tyrosine-protein phosphatase non-receptor type 1 (Homo sapiens) (UniProt P18031)
T3 sequence (whole entry): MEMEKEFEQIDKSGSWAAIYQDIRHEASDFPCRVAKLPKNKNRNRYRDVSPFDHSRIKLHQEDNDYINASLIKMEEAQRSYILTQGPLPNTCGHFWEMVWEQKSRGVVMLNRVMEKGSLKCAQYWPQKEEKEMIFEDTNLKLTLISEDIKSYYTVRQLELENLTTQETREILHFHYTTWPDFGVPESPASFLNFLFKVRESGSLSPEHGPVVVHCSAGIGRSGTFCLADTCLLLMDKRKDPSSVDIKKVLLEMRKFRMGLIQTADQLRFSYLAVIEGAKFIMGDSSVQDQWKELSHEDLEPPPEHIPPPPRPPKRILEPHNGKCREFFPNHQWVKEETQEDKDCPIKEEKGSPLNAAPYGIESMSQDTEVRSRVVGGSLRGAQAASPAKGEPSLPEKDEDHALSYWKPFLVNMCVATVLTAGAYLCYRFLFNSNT
Assay: Inhibition of PTP1B (unknown origin) phosphatase activity assessed as fluorescence at 100 uM by BMG plate reader in the presence of 0.005% Tween-20

Compound	inhibition [%]
Cc1cccc(-c2nc(-c3ccc4c(c3)CCN4S(C)(=O)=O)cs2)c1	< 50
COc1ccc(-c2nc(-c3ccc4c(c3)CCN4S(C)(=O)=O)cs2)cc1	< 50
CCOc1ccc(-c2nc(-c3ccc4[nH]c(=O)[nH]c4c3)cs2)cc1	< 50
CCOc1ccc(-c2nc(-c3ccc4c(c3)CC(=O)N4C)cs2)cc1	< 50

Molecular target: T4, M-phase inducer phosphatase 1 (Homo sapiens, UniProt P30304)
T4 sequence (P30304 whole entry): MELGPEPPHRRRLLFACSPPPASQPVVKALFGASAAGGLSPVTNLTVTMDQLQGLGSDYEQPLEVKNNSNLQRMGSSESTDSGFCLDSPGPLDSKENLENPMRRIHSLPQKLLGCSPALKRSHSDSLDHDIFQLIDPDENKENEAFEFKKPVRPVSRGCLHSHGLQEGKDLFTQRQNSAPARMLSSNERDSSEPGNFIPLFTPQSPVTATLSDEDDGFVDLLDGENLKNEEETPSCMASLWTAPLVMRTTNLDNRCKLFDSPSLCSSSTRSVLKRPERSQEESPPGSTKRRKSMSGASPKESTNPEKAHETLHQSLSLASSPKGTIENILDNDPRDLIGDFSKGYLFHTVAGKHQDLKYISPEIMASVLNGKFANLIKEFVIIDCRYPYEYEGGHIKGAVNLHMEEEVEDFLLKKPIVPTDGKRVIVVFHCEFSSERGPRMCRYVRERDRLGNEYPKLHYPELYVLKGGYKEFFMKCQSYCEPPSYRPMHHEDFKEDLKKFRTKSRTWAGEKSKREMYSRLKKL
Assay: Inhibition of Cdc25A (unknown origin) phosphatase activity assessed as fluorescence by BMG plate reader in the presence of 0.005% Tween-20

Compound	IC50 [µM]
O=C(CCC(=O)Nc1nc(-c2cc3ccccc3oc2=O)cs1)NCc1ccc2c(c1)OCO2	20.1
COc1ccc(-c2nc(C(=O)Nc3ccc[nH]c3=O)cs2)cc1	17.5
Cc1cccc(-c2nc(-c3ccc4c(c3)CCN4S(C)(=O)=O)cs2)c1	31.8
COc1ccc(-c2nc(-c3ccc4c(c3)CCN4S(C)(=O)=O)cs2)cc1	42.9
CCOc1ccc(-c2nc(-c3ccc4[nH]c(=O)[nH]c4c3)cs2)cc1	23.6
CCOc1ccc(-c2nc(-c3ccc4c(c3)CC(=O)N4C)cs2)cc1	33.6

Molecular target: T5, M-phase inducer phosphatase 3 (Homo sapiens, UniProt P30307)
T5 sequence (P30307 whole entry): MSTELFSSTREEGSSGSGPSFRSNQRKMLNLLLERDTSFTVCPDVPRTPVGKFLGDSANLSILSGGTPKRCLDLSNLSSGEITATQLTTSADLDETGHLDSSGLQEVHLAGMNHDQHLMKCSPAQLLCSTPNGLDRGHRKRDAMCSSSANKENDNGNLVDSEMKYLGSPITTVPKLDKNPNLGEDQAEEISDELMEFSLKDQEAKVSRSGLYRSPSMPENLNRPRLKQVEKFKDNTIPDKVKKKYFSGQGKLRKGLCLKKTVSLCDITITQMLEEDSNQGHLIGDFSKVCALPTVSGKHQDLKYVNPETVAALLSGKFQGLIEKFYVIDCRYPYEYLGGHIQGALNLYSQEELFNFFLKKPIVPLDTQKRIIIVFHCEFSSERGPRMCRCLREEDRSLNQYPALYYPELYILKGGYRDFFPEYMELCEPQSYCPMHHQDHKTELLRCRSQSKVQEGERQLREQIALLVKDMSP
Assay: Inhibition of Cdc25C (unknown origin) phosphatase activity assessed as fluorescence by BMG plate reader in the absence of detergent

Compound	IC50 [µM]
Cc1cccc(-c2nc(-c3ccc4c(c3)CCN4S(C)(=O)=O)cs2)c1	24.3
COc1ccc(-c2nc(-c3ccc4c(c3)CCN4S(C)(=O)=O)cs2)cc1	18
CCOc1ccc(-c2nc(-c3ccc4[nH]c(=O)[nH]c4c3)cs2)cc1	10.2
CCOc1ccc(-c2nc(-c3ccc4c(c3)CC(=O)N4C)cs2)cc1	> 100

Molecular target: T5, M-phase inducer phosphatase 3
Assay: Inhibition of Cdc25C (unknown origin) phosphatase activity assessed as fluorescence by BMG plate reader in the presence of 0.005% Tween-20

Compound	IC50 [µM]
O=C(CCC(=O)Nc1nc(-c2cc3ccccc3oc2=O)cs1)NCc1ccc2c(c1)OCO2	8.2
Cc1cccc(-c2nc(-c3ccc4c(c3)CCN4S(C)(=O)=O)cs2)c1	37.8
COc1ccc(-c2nc(-c3ccc4c(c3)CCN4S(C)(=O)=O)cs2)cc1	42.5
CCOc1ccc(-c2nc(-c3ccc4[nH]c(=O)[nH]c4c3)cs2)cc1	47.3
CCOc1ccc(-c2nc(-c3ccc4c(c3)CC(=O)N4C)cs2)cc1	47.6

Molecular target: T1, Dual specificity protein phosphatase 3
Assay: Inhibition of human His-tagged VHR phosphatase activity assessed as fluorescence by BMG plate reader in the presence of 0.005% Tween-20

Compound	IC50 [µM]
O=C(CCC(=O)Nc1nc(-c2cc3ccccc3oc2=O)cs1)NCc1ccc2c(c1)OCO2	17
COc1ccc(-c2nc(C(=O)Nc3ccc[nH]c3=O)cs2)cc1	> 100
Cc1cccc(-c2nc(-c3ccc4c(c3)CCN4S(C)(=O)=O)cs2)c1	40.1
COc1ccc(-c2nc(-c3ccc4c(c3)CCN4S(C)(=O)=O)cs2)cc1	45.4
CCOc1ccc(-c2nc(-c3ccc4[nH]c(=O)[nH]c4c3)cs2)cc1	20.1
CCOc1ccc(-c2nc(-c3ccc4c(c3)CC(=O)N4C)cs2)cc1	64.5

Species on record: Homo sapiens
Assay: Inhibition of alkaline phosphatase (unknown origin) phosphatase activity assessed as fluorescence at 100 uM by BMG plate reader in the presence of 0.005% Tween-20

Compound	inhibition [%]
Cc1cccc(-c2nc(-c3ccc4c(c3)CCN4S(C)(=O)=O)cs2)c1	< 50
COc1ccc(-c2nc(-c3ccc4c(c3)CCN4S(C)(=O)=O)cs2)cc1	< 50
CCOc1ccc(-c2nc(-c3ccc4[nH]c(=O)[nH]c4c3)cs2)cc1	< 50
CCOc1ccc(-c2nc(-c3ccc4c(c3)CC(=O)N4C)cs2)cc1	< 50

Molecular target: T4, M-phase inducer phosphatase 1
Assay: Inhibition of Cdc25A (unknown origin) phosphatase activity assessed as fluorescence by BMG plate reader in the absence of detergent

Compound	IC50 [µM]
Cc1cccc(-c2nc(-c3ccc4c(c3)CCN4S(C)(=O)=O)cs2)c1	5.6
COc1ccc(-c2nc(-c3ccc4c(c3)CCN4S(C)(=O)=O)cs2)cc1	6.5
CCOc1ccc(-c2nc(-c3ccc4[nH]c(=O)[nH]c4c3)cs2)cc1	2.4
CCOc1ccc(-c2nc(-c3ccc4c(c3)CC(=O)N4C)cs2)cc1	9.5

Molecular target: T2, M-phase inducer phosphatase 2
Assay: Inhibition of Cdc25B (unknown origin) phosphatase activity assessed as fluorescence by BMG plate reader in the presence of 0.005% Tween-20

Compound	IC50 [µM]
O=C(CCC(=O)Nc1nc(-c2cc3ccccc3oc2=O)cs1)NCc1ccc2c(c1)OCO2	0.9
COc1ccc(-c2nc(C(=O)Nc3ccc[nH]c3=O)cs2)cc1	6.8
Cc1cccc(-c2nc(-c3ccc4c(c3)CCN4S(C)(=O)=O)cs2)c1	34.4
COc1ccc(-c2nc(-c3ccc4c(c3)CCN4S(C)(=O)=O)cs2)cc1	26.1
CCOc1ccc(-c2nc(-c3ccc4[nH]c(=O)[nH]c4c3)cs2)cc1	17.9
CCOc1ccc(-c2nc(-c3ccc4c(c3)CC(=O)N4C)cs2)cc1	50

Species on record: Homo sapiens
Assay: Inhibition of MKP-5/p38 (unknown origin) phosphatase activity assessed as fluorescence at 100 uM by BMG plate reader in the presence of 0.005% Tween-20

Compound	inhibition [%]
Cc1cccc(-c2nc(-c3ccc4c(c3)CCN4S(C)(=O)=O)cs2)c1	< 50
COc1ccc(-c2nc(-c3ccc4c(c3)CCN4S(C)(=O)=O)cs2)cc1	< 50
CCOc1ccc(-c2nc(-c3ccc4[nH]c(=O)[nH]c4c3)cs2)cc1	< 50
CCOc1ccc(-c2nc(-c3ccc4c(c3)CC(=O)N4C)cs2)cc1	< 50
